Earlier results as cited in patent US20240158423A1, “TWO-COMPARTMENT BIPOLAR MEMBRANE ELECTRODIALYSIS OF SALTS OF AMINO ACIDS” (MONSANTO TECHNOLOGY LLC, priority 2021, published 2024).
Where two headings read alike, the source gives them in different places.

- solubility (in water at a temperature of 10° C.): less than 4 g IDA/100 g H2O
- solubility (in water at a temperature of 60° C.): approximately 14 g IDA/100 g H2O
Structure (SMILES): O=C(O)CNCC(=O)O [IDA, iminodiacetic acid]
